43 compounds from US9296725B2, “Heterocyclyl pyrimidine analogues as TYK2 inhibitors” (Cellzome Limited, priority 2012, dated 2016) can be followed below.

In one assay the target is T1, JAK2 (Homo sapiens, UniProt O60674).
T1 construct: endogenous in cells; host or cells: Molt4 (ATCC CRL-1582) and Ramos (ATCC CRL-1596), mixed lysate 1:2
The assay is described as follows: Kinobeads assay, JAK2 (competition binding in mixed Molt4/Ramos cell lysate, dot blot detection). The note with it: read-out: JAK2 Band (Kinobeads assay potency, IC50). The essentials: (§1)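 Competition binding: compound dilutions (1:3 series, 9 steps) plus immobilized aminopyrido-pyrimidine beads incubated 3 h in the cold with mixed Molt4/Ramos lysate (1:2) at 10 mg/mL protein. Bead-bound JAK2/TYK2 eluted and quantified by antibody dot blot with infrared detection; IC50 from dose-response curves.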

A further assay concerns the target T2, TYK2 (Homo sapiens, UniProt P29597).
T2 construct: endogenous in cells; host or cells: Molt4 (ATCC CRL-1582) and Ramos (ATCC CRL-1596), mixed lysate 1:2
The assay is described as follows: Kinobeads assay, TYK2 (competition binding in mixed Molt4/Ramos cell lysate, dot blot detection). The note with it: Kinobeads assay, Molt4/Ramos lysate; read-out: TYK2 Band (Kinobeads assay potency, IC50). The essentials: as §1

Structures are written as SMILES. Some results are limits rather than exact numbers.

T2 sequence (P29597 whole entry): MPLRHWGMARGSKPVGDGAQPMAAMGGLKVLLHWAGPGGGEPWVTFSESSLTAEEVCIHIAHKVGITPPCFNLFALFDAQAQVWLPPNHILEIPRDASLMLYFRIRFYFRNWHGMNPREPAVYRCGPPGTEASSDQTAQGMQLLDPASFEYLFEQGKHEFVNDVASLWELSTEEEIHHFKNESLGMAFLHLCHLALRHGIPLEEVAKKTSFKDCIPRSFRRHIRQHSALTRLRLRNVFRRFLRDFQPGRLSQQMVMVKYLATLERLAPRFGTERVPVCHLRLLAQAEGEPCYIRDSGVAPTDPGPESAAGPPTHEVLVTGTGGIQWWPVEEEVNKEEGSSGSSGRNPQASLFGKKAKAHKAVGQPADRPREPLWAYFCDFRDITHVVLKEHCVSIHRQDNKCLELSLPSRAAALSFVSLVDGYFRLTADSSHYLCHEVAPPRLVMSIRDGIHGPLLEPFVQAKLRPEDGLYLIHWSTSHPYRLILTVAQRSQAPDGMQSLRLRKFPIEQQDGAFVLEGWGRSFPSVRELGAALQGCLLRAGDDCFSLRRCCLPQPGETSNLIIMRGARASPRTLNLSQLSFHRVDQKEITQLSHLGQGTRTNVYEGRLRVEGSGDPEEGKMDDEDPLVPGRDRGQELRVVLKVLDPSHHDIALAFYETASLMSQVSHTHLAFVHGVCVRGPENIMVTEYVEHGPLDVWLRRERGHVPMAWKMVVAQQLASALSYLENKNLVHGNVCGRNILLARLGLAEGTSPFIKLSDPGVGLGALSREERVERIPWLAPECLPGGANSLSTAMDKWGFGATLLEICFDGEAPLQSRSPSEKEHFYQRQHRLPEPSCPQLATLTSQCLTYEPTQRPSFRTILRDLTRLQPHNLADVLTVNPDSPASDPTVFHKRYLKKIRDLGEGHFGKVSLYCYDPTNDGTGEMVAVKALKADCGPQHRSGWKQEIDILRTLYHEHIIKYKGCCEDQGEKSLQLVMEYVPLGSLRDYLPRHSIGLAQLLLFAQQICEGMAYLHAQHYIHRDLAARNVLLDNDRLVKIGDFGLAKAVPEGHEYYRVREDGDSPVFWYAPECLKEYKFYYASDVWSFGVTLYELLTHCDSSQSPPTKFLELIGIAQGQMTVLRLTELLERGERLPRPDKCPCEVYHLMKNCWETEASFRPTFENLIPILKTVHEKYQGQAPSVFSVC
T1 sequence (O60674 whole entry): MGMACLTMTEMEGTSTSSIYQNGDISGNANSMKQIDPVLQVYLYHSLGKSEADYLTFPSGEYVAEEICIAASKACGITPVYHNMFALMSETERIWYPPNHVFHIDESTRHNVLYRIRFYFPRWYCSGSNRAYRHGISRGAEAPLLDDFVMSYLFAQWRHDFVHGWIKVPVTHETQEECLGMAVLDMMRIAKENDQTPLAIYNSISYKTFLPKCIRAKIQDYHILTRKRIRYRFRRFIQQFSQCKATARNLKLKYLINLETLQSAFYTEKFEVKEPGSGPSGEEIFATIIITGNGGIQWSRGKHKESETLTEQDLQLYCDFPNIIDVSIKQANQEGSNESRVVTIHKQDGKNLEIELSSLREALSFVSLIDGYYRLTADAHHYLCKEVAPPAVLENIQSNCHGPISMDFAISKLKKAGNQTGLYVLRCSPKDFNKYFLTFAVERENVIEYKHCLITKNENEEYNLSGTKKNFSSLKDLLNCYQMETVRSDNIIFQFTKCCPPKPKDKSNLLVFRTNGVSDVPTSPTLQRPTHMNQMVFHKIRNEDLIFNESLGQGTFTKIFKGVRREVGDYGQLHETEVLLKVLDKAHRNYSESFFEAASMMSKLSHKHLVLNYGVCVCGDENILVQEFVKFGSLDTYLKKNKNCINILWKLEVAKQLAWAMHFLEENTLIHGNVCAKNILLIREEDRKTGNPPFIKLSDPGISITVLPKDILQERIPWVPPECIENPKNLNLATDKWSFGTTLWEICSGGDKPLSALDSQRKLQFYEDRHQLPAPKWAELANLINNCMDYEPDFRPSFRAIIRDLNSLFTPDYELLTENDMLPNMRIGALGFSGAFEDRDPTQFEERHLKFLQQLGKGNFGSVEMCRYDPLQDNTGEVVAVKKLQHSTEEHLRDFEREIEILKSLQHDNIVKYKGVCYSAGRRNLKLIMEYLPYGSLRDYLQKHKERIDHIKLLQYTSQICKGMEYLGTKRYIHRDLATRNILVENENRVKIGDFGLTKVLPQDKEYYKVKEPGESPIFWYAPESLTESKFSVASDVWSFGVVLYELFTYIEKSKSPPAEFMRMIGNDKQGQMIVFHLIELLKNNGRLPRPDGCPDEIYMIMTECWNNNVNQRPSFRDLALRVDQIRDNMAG

`CS(=O)(=O)c1ccccc1CNc1nc(Nc2cnn(CCO)c2)ncc1F` [Example I-435]: the IC50 lay within 1000 to 10000 nM at JAK2 and 100 to 1000 nM on TYK2.

Consider `CCC(CC)NC(=O)Cn1cc(Nc2ncc(F)c(NCc3c(F)cc(F)cc3F)n2)cn1` [Example I-58], for which the IC50 at JAK2 was over 10000 nM; on TYK2 it was 10 to 100 nM.

Consider `Fc1ccccc1CNc1nc(Nc2cn[nH]c2)ncc1Cl` [Example I-369], for which the IC50 at JAK2 and on TYK2 was 100 to 1000 nM in each case.

As to `CS(=O)(=O)Cn1cc(Nc2ncc(Cl)c(NCc3ccccc3)n2)cn1` [Example I-254], the half-maximal inhibitory concentration (IC50) on JAK2 was in the range of 1000 to 10000 nM; on TYK2, 100 to 1000 nM.

Turning to `C[C@@H](CO)NC(=O)Cn1cc(Nc2nccc(NCc3c(F)cc(F)cc3F)n2)cn1` [Example I-75], the IC50 on JAK2 is over 10000 nM; at TYK2 it was at most 10 nM.

With `Cc1cnc(Nc2cnn(CC(F)F)c2)nc1NCc1cccc(F)c1F` [Example I-347], the IC50 at JAK2 and at TYK2 was 1000 to 10000 nM each time.

As for `CC(NC(=O)Cn1cc(Nc2nccc(NCc3c(F)cc(F)cc3F)n2)cn1)C1CCCO1` (centres unmarked) [Example I-431], the IC50 at JAK2 is over 10000 nM; on TYK2, 10 to 100 nM.

In the case of `Cc1cnc(Nc2cnn(CC(F)F)c2)nc1NCc1ccc(S(N)(=O)=O)cc1` [Example I-465], the concentration for half-maximal inhibition (IC50) at JAK2 is 1000 to 10000 nM; on TYK2, 100 to 1000 nM.

In the case of `OCCn1cc(Nc2ncc(F)c(NCc3cc(F)ccc3F)n2)cn1` [Example I-203], the IC50 was 10 to 100 nM at JAK2 and at most 10 nM at TYK2.

For `Clc1cnc(Nc2cnn(Cc3ncco3)c2)nc1NCc1ccccc1` [Example I-249], the IC50 at JAK2 and at TYK2 was 1000 to 10000 nM in each case.

`NC(=O)Cn1cc(Nc2nccc(NCc3c(F)cc(F)cc3F)n2)cn1` [Example I-311]: the IC50 at JAK2 lay within 1000 to 10000 nM; at TYK2, 10 to 100 nM.

For `COc1ccc(F)c(CNc2nc(Nc3cnn(CC(=O)N(C)C(C)C)c3)ncc2F)c1F` [Example I-57], the values for the IC50 at JAK2 and at TYK2 were 1000 to 10000 nM and at most 10 nM, respectively.

With `CN(C)C(=O)Cn1cc(Nc2ncc(F)c(NCc3cc(F)cc(C(F)(F)F)c3)n2)cn1` [Example I-331], the values for the IC50 at JAK2 and on TYK2 were 1000 to 10000 nM and 100 to 1000 nM, respectively.

Consider `COc1ccc(S(C)(=O)=O)cc1CNc1nc(Nc2cnn(C)c2)ncc1Cl` [Example I-449], for which the IC50 on JAK2 fell in the range of 100 to 1000 nM; at TYK2, 10 to 100 nM.

Regarding `CS(=O)(=O)c1ccc(F)cc1CNc1nc(Nc2cn[nH]c2)ncc1Cl` [Example I-72], the IC50 at JAK2 was in the range of 100 to 1000 nM; at TYK2, 10 to 100 nM.

With `CN(C)C(=O)Cn1cc(Nc2ncc(F)c(NCc3cccc(OC(F)F)c3)n2)cn1` [Example I-14], the values for the half-maximal inhibitory concentration (IC50) at JAK2 and at TYK2 were 1000 to 10000 nM and 10 to 100 nM, respectively.

Consider `CC(C)NC(=O)Cn1cc(Nc2nccc(NCc3c(F)ccc(F)c3F)n2)cn1` [Example I-63], for which the IC50 was 1000 to 10000 nM at JAK2 and at most 10 nM on TYK2.

For `COc1ccc(S(C)(=O)=O)cc1CNc1nc(Nc2cnn(C)c2)ncc1F` [Example I-446], the results for the IC50 on JAK2 and at TYK2 were 1000 to 10000 nM and 10 to 100 nM, respectively.

Take `CS(=O)(=O)c1ccccc1CNc1nc(Nc2cnn(CC(F)F)c2)ncc1Cl` [Example I-471]: the IC50 at JAK2 and at TYK2 was 1000 to 10000 nM in each case.

`Cc1cccc(F)c1CNc1ccnc(Nc2cnn(CC(=O)NC(C)C)c2)n1` [Example I-155]: the IC50 is 1000 to 10000 nM on JAK2 and at most 10 nM on TYK2.

As for `CC(O)Cn1cc(Nc2ncc(Cl)c(NCc3ccccc3)n2)cn1` (centres unmarked) [Example I-216], the IC50 on JAK2 lay within 1000 to 10000 nM; on TYK2, 100 to 1000 nM.

In the case of `NS(=O)(=O)c1ccc(CNc2nc(Nc3cnn(CC(=O)N4CCCCC4)c3)ncc2F)cc1` [Example I-30], the values for the IC50 at JAK2 and at TYK2 were over 10000 nM and 10 to 100 nM, respectively.

Take `C[C@@H](CO)NC(=O)Cn1cc(Nc2nccc(NCc3c(F)cncc3F)n2)cn1` [Example I-146]: the IC50 at JAK2 was over 10000 nM; at TYK2, 10 to 100 nM.

On to `C[C@@H](CO)NC(=O)Cn1cc(Nc2nccc(NCc3c(F)ccc(C#N)c3F)n2)cn1` [Example I-153], for which the IC50 is 1000 to 10000 nM at JAK2 and at most 10 nM on TYK2.

For `Cc1cnc(Nc2cnn(CC(=O)N[C@@H](C)CO)c2)nc1NCc1c(F)cc(F)cc1F` [Example I-36], the values for the IC50 on JAK2 and at TYK2 were 100 to 1000 nM and at most 10 nM, respectively.

As to `COc1cc(F)c(CNc2nc(Nc3cnn(CC(=O)NC(C)C)c3)ncc2F)c(F)c1` [Example I-70], the IC50 on JAK2 is over 10000 nM; at TYK2, 10 to 100 nM.

Consider `N#Cc1cccc(CNc2nc(Nc3cnn(CC(=O)N4CCOCC4)c3)ncc2Cl)c1` [Example I-172], for which the IC50 at JAK2 is 100 to 1000 nM; at TYK2, 10 to 100 nM.

For `CNC(=O)Cn1cc(Nc2ncc(Cl)c(NCc3cc(C(F)(F)F)ccc3Cl)n2)cn1` [Example I-280], the IC50 was in the range of 100 to 1000 nM at JAK2 and 10 to 100 nM at TYK2.

For the compound `OCCn1cc(Nc2ncc(F)c(NCc3cccc(F)c3)n2)cn1` [Example I-210], the values for the IC50 on JAK2 and on TYK2 were 100 to 1000 nM and 10 to 100 nM, respectively.

With `C[C@H](C(N)=O)n1cc(Nc2ncc(Cl)c(NCc3ccccc3)n2)cn1` [Example I-290], the IC50 was 1000 to 10000 nM on JAK2 and 100 to 1000 nM at TYK2.

Turning to `CN(CC#N)C(=O)Cn1cc(Nc2ncc(Cl)c(NCc3ccccc3)n2)cn1` [Example I-238], the concentration for half-maximal inhibition (IC50) at JAK2 was 1000 to 10000 nM; at TYK2 it was 100 to 1000 nM.

Take `O=C(Cn1cc(Nc2nccc(NCc3c(F)cccc3Cl)n2)cn1)N1CCOCC1` [Example I-129]: the figures for the IC50 on JAK2 and on TYK2 were over 10000 nM and at most 10 nM, respectively.

Take `C[C@@H](C(N)=O)n1cc(Nc2ncc(Cl)c(NCc3ccccc3)n2)cn1` [Example I-291]: the IC50 lay in the range of 1000 to 10000 nM at JAK2 and 100 to 1000 nM on TYK2.

On to `COc1ccc(F)c(CNc2nc(Nc3cnn(C)c3)ncc2C)c1F` [Example I-302], for which the IC50 on JAK2 lay in the range of 100 to 1000 nM; at TYK2, 10 to 100 nM.

For the compound `CNC(=O)Cn1cc(Nc2ncc(Cl)c(NCc3cccc(F)c3F)n2)cn1` [Example I-208], the half-inhibitory concentration (IC50) at JAK2 and on TYK2 was 100 to 1000 nM each time.

For `CC(O)Cn1cc(Nc2ncc(Cl)c(NCc3cccc(F)c3)n2)cn1` (centres unmarked) [Example I-214], the IC50 on JAK2 was in the range of 1000 to 10000 nM; at TYK2 it was 100 to 1000 nM.

Take `NC(=O)Cn1cc(Nc2ncc(Cl)c(NCc3ccccc3)n2)cn1` [Example I-206]: the IC50 on JAK2 and on TYK2 was 100 to 1000 nM throughout.

Take `COc1ccc(F)c(CNc2ccnc(Nc3cnn(CC(=O)NCCF)c3)n2)c1F` [Example I-126]: the IC50 on JAK2 was 1000 to 10000 nM; on TYK2 it was 10 to 100 nM.

Regarding `COc1ccc(F)c(CNc2nc(Nc3cnn(CC(=O)NC(C)C)c3)ncc2Cl)c1F` [Example I-427], the IC50 lay within 1000 to 10000 nM at JAK2 and 10 to 100 nM at TYK2.

For `OCCn1cc(Nc2ncc(F)c(NCc3c(F)cccc3F)n2)cn1` [Example I-204], the IC50 on JAK2 was 1000 to 10000 nM; at TYK2, at most 10 nM.

`Cc1cccc(F)c1CNc1ccnc(Nc2cnn(CC(=O)N[C@@H](C)CO)c2)n1` [Example I-156]: the IC50 on JAK2 was 1000 to 10000 nM; at TYK2, at most 10 nM.

On to `Cn1cc(Nc2ncc(Cl)c(NCc3cncc(F)c3)n2)cn1` [Example I-258], for which the IC50 on JAK2 and at TYK2 was 100 to 1000 nM throughout.

Turning to `CS(=O)(=O)c1ccc(F)cc1CNc1nc(Nc2cnn(CCO)c2)ncc1F` [Example I-488], the IC50 at JAK2 lay in the range of 100 to 1000 nM; on TYK2, 10 to 100 nM.
